From patent publication US7893199B2, “Peptides having neutrophil-stimulating activity” (National University Corporation Gunma University, priority 2006, dated 2011)
Where no end group is shown, it is not given here.

How the values were obtained:
[1] = system: HL-60 cells differentiated into the neutrophil-like cells; assay: β-hexosaminidase-secreting activity of neutrophil-like differentiated HL-60 cells; type: cell-based, human; details: differentiated HL-60 cells; read-out: EC50, β-hexosaminidase-secreting activity
In short: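 HL-60 cells were differentiated with 500 μM db-cAMP for 3 days at 37 °C, then stimulated with peptide for 10 min in HBHS/0.1% BSA, pH 7.4, containing 5 μg/ml cytochalasin B and DNase I. Released β-hexosaminidase was read at 405 nm after p-nitrophenyl-N-acetylglucosaminide hydrolysis (pH 4.5, 37 °C, 1 h). Secretion is expressed relative to 10 μM fMLP, with total enzyme from 0.05% Triton X-100 lysis.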

[2] = system: G protein in the differentiated HL-60 cell membrane fraction; assay: G protein activation ability (GTP hydrolysis) in cell membrane fraction; type: biochemical, human
Description: (4) Measurement of G Protein Activation Ability
The cells were collected by centrifuging the suspension of the differentiated HL-60 cells (1,000 rpm, 5 minutes, 4° C.). After that, the following operation was repeated three times to wash the cells: ice-cooled PBS was added to the cells; the mixture was suspended by inversion; and the mixture was centrifuged (1,000 rpm, 5 minutes, 4° C.). Then, the precipitated cells were suspended in a buffer for preparing a cell membrane fraction (20 mM Tris-HCl, 250 mM sucrose, 1.5 mM MgCl2, 3 mM benzamidine hydrochloride monohydrate, 1 μM leupeptin, 1 μM PMSF, 2 μg/ml trypsin inhibitor, pH 7.5) and a cell homogenate was prepared using nitrogen pressing-depressing type cell homogenizing apparatus (nitrogen pressure: 350 psi). After that, the resultant was ultracentrifuged (20,000 g, 4° C., 30 minutes) to remove the supernatant, and the precipitate was suspended in a membrane fraction buffer (20 mM Tris-HCl, 1 mM EDTA, 1 mM DTT, 77.5 mTIU/ml aprotinin, pH 7.5) and used as a cell membrane fraction. After dispensed, the cell membrane fraction was stored at −80° C. The activity of the G protein was quantified using the activity to hydrolyze GTP to GDP as an index. […] The mixture was centrifuged (15,000 rpm, 1 minute, 4° C.), and the radioactivity of the supernatant was measured.

In the case of MLWNLLALHQIGQRTISTASHRH [No. 019], the EC50 [1] is reported as 200 nM and the “activation of G protein” value [2] is reported as “activated”.
